# Test results taken from patent US12285404B2, “Prevention of rosacea inflammation” (The Regents of the University of California, priority 2013, dated 2025).
# Experiments:
# WT mice = test: MC stabilizer experiment: cromolyn sodium I.P. pretreatment before Cath LL-37 challenge (rosacea mouse model); type: in vivo
# Method: WT mice were injected I.P. with vehicle or cromolyn sodium (10 mg/kg, per day) for 4 days. 24 hours after the last injection, the mice were injected intradermally with 50 μl of […] Cath LL-37 or PBS, twice a day for 2 days. Skin biopsies were taken after 72 hours of observation and (a) Mmp-9 and Cxcl2 mRNA expressions were assessed by RT-PCR, (b) MMP-9 activity was assessed by measuring cleavage of a MMP fluorogenic substrate with specific inhibitors, and (c) immunohistochemistry was performed on frozen skin sections using antibodies against MMP-9 and FcεRI. DAPI stain was also used, as indicated. Statistics: one-way and two-way ANOVA **p<0.01 (n=3).
# Mast cell deficient (C57BL/6-KitWsh^−/−) mice were bred. KitWsh^−/− mice bearing the W-sash (Wsh) inversion mutation have MC deficiency, but lack anemia and sterility. […] Wild type mice (C57BL/6) were utilized as control. Mice were shaved 24 hrs before intradermal injection with 50 μl of 50 μM or 320 μM of Cath LL-37 or filtered PBS (n=3), twice a day for 2 days and skin biopsies were taken after 72 hours of observation. Total RNA was extracted and purified by RNeasy Mini Kit (QIAGEN science). For the time course observation, skin biopsies of WT and MC deficient mice were taken at 1, 4, and 24 hrs after Cath LL-37 injection.
# For the MC stabilizer experiment: Cromolyn sodium (0.3 mg/mouse/day) (Sigma-Aldrich, St Louis, MO) in PBS was injected I.P. into WT mice for 4 days.
# Total-MMP activities were determined by following previously reported study (Kanada et al., 2012). To determine MMP-9 activity, MMP-9 specific inhibitor I (Thermo Fisher Scientific, Chicago, IL) was used.
# cDNA was synthesized from RNA using the iScript cDNA Synthesis Kit (BioRad, Hercules, CA) according to the manufacturer's protocol. cDNA was normalized using a NanoDrop spectrophotometer (Thermo Fisher Scientific Inc.). Probes from TagMan Gene Expression Assays (Applied Biosystems ABI, Foster City, CA) were used to analyze gene expressions with following to the manufacturer's instructions. Gapdh mRNA was used as an internal control to validate RNA for each sample. mRNA expression was calculated as the relative expression to Gapdh mRNA, and all data are presented as fold change of each control.
# Fluorescence immunohistochemistry. Mouse skin frozen sections were fixed with acetone, washed in 1×PBS, blocked with 5% goat serum/1% BSA for 30 minutes, and incubated with anti-MMP-9 polyclonal antibody (ABBIOTEC, San Diego, CA). For FcERI detection, anti-mouse FcERI PE (eBioscience, San Diego, CA) was used. Images were obtained using a Zeiss LSM510 laser scanning confocal microscope coupled with an Axiovert 100 inverted stage microscope.
# According to the obtained results, MC proteases and MMP-9, which are released from MCs upon stimulation by Cath LL-37, are central in promoting rosacea-like skin inflammation. […] To test this hypothesis, cromolyn sodium, a very well-known MC stabilizer, was injected I.P. into WT mice (10 mg/kg, per day) every day for 4 days before Cath LL-37 challenge. 24 hours after the last cromolyn sodium injection, mice were injected with 50 μl of […] Cath LL-37 or PBS, twice a day for 2 days. […] In addition, frozen skin sections were stained with anti-MMP-9 and anti-FIERI antibodies for the detection of MCs.
# [1] = tested on: erythematotelangiectatic rosacea subjects; test: Topical 4% cromolyn sodium vs placebo in erythematotelangiectatic rosacea subjects, clinical evaluation and tape strips; type: in vivo, human
# Method: (a, b) NHEK cells were co-cultured with 100 μl of supernatant of human cord blood-derived MCs after degranulation by 48/80, or serine buffer. (a) After 24 hrs of co-culture, NHEK cells were washed well and MMP and KLK activities in the cells were obtained, and (b) For the comparison of Cath LL-37 mRNA expression in NHEK cells, 100 nM of 1,25(OH)2VD3 was added to same co-culture. (c) 10 erythematotelangiectatic rosacea subjects were randomized to apply a solution containing either the MC stabilizer (4% cromolyn sodium) (n=5) or placebo (n=5) topically. Tape strips were obtained at the first visit (v1) and last visit (v4) and proteases and protein were separately extracted. Statistics: t-test ***p<0.001 (n=3), *p<0.05 (n=5).
# 2 mm skin biopsies were taken from the faces of healthy and rosacea subjects, as well as tape strips from the face of erythematotelangiectatic rosacea subjects in the dermatology clinic at the University of California, San Diego. All the procedures involving human subjects were approved by the University of California San Diego Institutional Review Board under the IRB number 071032. Ten randomized adults with erythematotelangiectatic rosacea were applied a water-based solution containing either 4% cromolyn sodium or placebo, topically to their face twice a day, for 8 weeks. A clinical evaluation was performed at each visit. A total six tape strips were obtained from right and left cheek at each of the first visit and the final visit.
# To test whether the results were reproducible in humans, 10 randomized adults with erythematotelangiectatic rosacea were used to apply a solution containing either the MC stabilizer (4% cromolyn sodium) or placebo, topically to their face twice daily. Six tape strips were obtained from both right and left cheeks, at the time of first visit (v1) and last visit (v4). After eight week (v4), facial erythema levels decreased in the cromolyn treatment group. MMP, KLK activity and Cath LL-37 protein levels were decreased in the cromolyn treatment group with significant activity in MMP observed (FIG. 5c).
# [2] = tested on: protease that cleaves full length cathelicidin; settings: cited from earlier work
# [3] = cromolyn pretreated, Cath LL-37 challenged WT mice, biopsies after 72 hours, p<0.01
# [4] = 4% cromolyn sodium topically twice daily, v1 vs v4
Compound,"mast cell (MC) degranulation (WT mice; FIG. 4 legend, cromolyn sodium 10 mg/kg per day I.P. for 4 days, WT mice)","MMP-9 activity in the tissue (WT mice; cromolyn pretreated, Cath LL-37 challenged WT mice, MMP fluorogenic substrate with specific inhibitors, p<0.01)",Cxcl2 mRNA expression in skin (RT-PCR) (WT mice; [3]),Mmp-9 mRNA expression in skin (RT-PCR) (WT mice; [3]),"skin inflammation (WT mice; cromolyn sodium I.P. 10 mg/kg per day for 4 days, then 50 μl of 320 μm Cath LL-37 intradermally twice a day for 2 days, WT mice)","facial erythema levels ([1]; 4% cromolyn sodium solution topically to face twice daily, after eight week (v4), n=5)","Cath LL-37 protein levels (tape strips) [1, 4]","KLK activity (tape strips) [1, 4]","MMP activity (tape strips) ([1]; 4% cromolyn sodium topically twice daily, v1 vs v4, significant, p<0.05 (n=5))",inhibition of the enzyme in vitro [2]
"O=C(O)c1cc(=O)c2c(OCC(O)COc3cccc4oc(C(=O)O)cc(=O)c34)cccc2o1 [cromolyn, cromolyn sodium]",prevents mast cell (MC) degranulation,dramatically decreased,significantly decreased,significantly decreased,did not develop,decreased,decreased,decreased,decreased,
aprotinin,,,,,,,,,,can inhibit this enzyme in vitro
"NCCc1ccc(S(=O)(=O)F)cc1 [AEBSF, 4-(2-aminoethyl)-benzenesulfonylfluoride]",,,,,,,,,,can inhibit this enzyme in vitro
